Among the test systems are SN12C renal; SF-295 CNS; MDA-MB-231 breast; NCI/ADR-RES ovarian; SK-MEL-5 melanoma; UACC-62 melanoma; SK-MEL-28 melanoma; IGROV1 ovarian; NCI-H226 lung; HOP-92 NSCLC.
Test in all cases: NCI-60 cell line screen, 48 h

Our source for the TGI and GI50 values is PubChem BioAssay (NCI).

SMILES strings stand for the structures.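 A five-concentration, 48-hour dose response in 96-well plates underlies each endpoint, interpolated linearly between surrounding concentrations. The concentration for 50% growth inhibition is given as GI50. TGI: concentration producing complete growth inhibition.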 Some results are limits rather than exact numbers.

On to `OCC1OC(c2ccccc2)CC1O` (stereo not given), for which the TGI in the assay on SN12C renal, with SF-295 CNS, with MDA-MB-231 breast, with NCI/ADR-RES ovarian, in the assay on SK-MEL-5 melanoma and with UACC-62 melanoma was greater than 100 µM in each case. Further, the TGI in the assay on SK-MEL-28 melanoma, with IGROV1 ovarian and in the assay on NCI-H226 lung was greater than 100 µM throughout.
For the compound `O=C1c2cc3c(cc2CC1Cc1ccc2c(c1)CCC2)CCC3` (stereo not given), the TGI in the assay with SN12C renal, in the assay with SF-295 CNS, in the assay with MDA-MB-231 breast, with NCI/ADR-RES ovarian, in the assay on SK-MEL-5 melanoma and with UACC-62 melanoma was greater than 100 µM each time. Further, the TGI with SK-MEL-28 melanoma is greater than 100 µM; with IGROV1 ovarian it was greater than 100 µM; in the assay on NCI-H226 lung, 65 µM.
On to `CC1=NN(C(=O)Cc2ccccc2)C(=O)/C1=C\c1ccccc1O`, for which the TGI with SN12C renal, in the assay with SF-295 CNS, with SK-MEL-5 melanoma, with UACC-62 melanoma, in the assay on SK-MEL-28 melanoma and in the assay with IGROV1 ovarian was greater than 100 µM in each case. Moreover, the TGI in the assay with HOP-92 NSCLC and in the assay on NCI-H226 lung was greater than 100 µM throughout.
For `OC1(c2ccc(Cl)cc2)c2c(c3ccccc3c3ccccc23)C2=NCCN21` (stereo not given), the TGI in the assay with SN12C renal is 44.7 µM; in the assay on SF-295 CNS, 28.1 µM; with MDA-MB-231 breast it was 26.8 µM; in the assay on NCI/ADR-RES ovarian, 25.5 µM; with SK-MEL-5 melanoma, greater than 100 µM; in the assay on UACC-62 melanoma it was 32 µM. The TGI in the assay on SK-MEL-28 melanoma is 34.9 µM; with IGROV1 ovarian, 18.2 µM; in the assay on HOP-92 NSCLC it was 49.4 µM.
With `O=C1CCC2(c3ccc(Cl)cc3)Nc3ncncc3N12` (stereo not given), the TGI in the assay on SN12C renal, in the assay with SF-295 CNS, in the assay with NCI/ADR-RES ovarian, in the assay on UACC-62 melanoma, in the assay with IGROV1 ovarian and with HOP-92 NSCLC was greater than 10 µM in each case. Moreover, the TGI with NCI-H226 lung is greater than 10 µM.
With `COc1cc(-c2nc3cc(Cl)c(Cl)cc3[nH]2)ccc1OCC(=O)N=Nc1c(O)[nH]c2ccc(Cl)cc12`, the figures for the GI50 in the assay on MDA-MB-231 breast, in the assay with NCI/ADR-RES ovarian and in the assay with UACC-62 melanoma were 0.538 µM, greater than 100 µM and 1.2 µM, respectively. Further, the values for the TGI in the assay with MDA-MB-231 breast, with NCI/ADR-RES ovarian and in the assay with UACC-62 melanoma were 1.95 µM, greater than 100 µM and 2.54 µM, respectively.
With `CC(=O)OCC1OC(n2c(N)c(C#N)c(-c3cccc(Cl)c3)c(C#N)c2=S)C(OC(C)=O)C(OC(C)=O)C1OC(C)=O` (stereo not given), the TGI in the assay with SN12C renal was greater than 100 µM; in the assay on SF-295 CNS, greater than 100 µM; in the assay on MDA-MB-231 breast, 50.2 µM; in the assay with NCI/ADR-RES ovarian, 96.4 µM; with SK-MEL-5 melanoma it was 30.3 µM; in the assay on UACC-62 melanoma, greater than 100 µM. For the same compound, the TGI in the assay on SK-MEL-28 melanoma, in the assay with IGROV1 ovarian and with HOP-92 NSCLC was greater than 100 µM in each case.
As to `C1=CN2C[n+]3ccc4ccccc4c3N=C2c2ccccc21`, the TGI was 9.52 µM in the assay with SN12C renal; 24 µM in the assay with SF-295 CNS; 23.6 µM in the assay on MDA-MB-231 breast; greater than 100 µM in the assay with NCI/ADR-RES ovarian; 1.5 µM in the assay on SK-MEL-5 melanoma; 4.32 µM with UACC-62 melanoma. Also, the TGI was 20.2 µM with IGROV1 ovarian and 7.92 µM in the assay with HOP-92 NSCLC.
For the compound `O=C1CC(C(COCc2ccccc2)OCc2ccccc2)CC(=O)N1` (stereo not given), the TGI in the assay with SN12C renal, in the assay on SF-295 CNS, with MDA-MB-231 breast, in the assay with SK-MEL-5 melanoma, with SK-MEL-28 melanoma and in the assay with IGROV1 ovarian was greater than 100 µM throughout. Further, the TGI in the assay on HOP-92 NSCLC and with NCI-H226 lung was greater than 100 µM each time.
For `CC(=O)N1C(Nc2cccc3nc(C)ccc23)CCN1c1ccccc1` (stereo not given), the TGI in the assay with SN12C renal, in the assay with SF-295 CNS, in the assay on MDA-MB-231 breast, in the assay on NCI/ADR-RES ovarian, with SK-MEL-5 melanoma and with SK-MEL-28 melanoma was greater than 10 µM each time. The TGI in the assay on IGROV1 ovarian and in the assay with NCI-H226 lung was greater than 10 µM in each case.
Regarding `O=C(Nc1ccc(Sc2ccc(N=Nc3c(O)c(S(=O)(=O)O)cc4cc(S(=O)(=O)O)ccc34)cc2)cc1)c1ccc(N=Nc2c(O)c(S(=O)(=O)O)cc3cc(S(=O)(=O)O)ccc23)cc1`, the TGI with SN12C renal was greater than 100 µM; in the assay with SF-295 CNS, greater than 100 µM; in the assay on SK-MEL-5 melanoma it was 53.9 µM; with UACC-62 melanoma, 62 µM; in the assay on SK-MEL-28 melanoma, 86.5 µM; with IGROV1 ovarian, greater than 100 µM. Moreover, the TGI with HOP-92 NSCLC was 92.4 µM; with NCI-H226 lung, greater than 100 µM.
`C[N+]1([O-])[C@H]2CC(OC(=O)[C@H](CO)c3ccccc3)C[C@H]1[C@H]1O[C@H]12` (stereo not given in full): the TGI with SN12C renal, in the assay on SF-295 CNS, with MDA-MB-231 breast, in the assay on NCI/ADR-RES ovarian, in the assay on SK-MEL-5 melanoma and with UACC-62 melanoma was greater than 100 µM in each case. Moreover, the TGI in the assay on SK-MEL-28 melanoma, in the assay with IGROV1 ovarian and with NCI-H226 lung was greater than 100 µM in each case.
Turning to `C[C@]12CC[C@H](O)CC1=CC[C@@H]1[C@@H]2CC[C@]2(C)C(=O)/C(=C/c3ccc([N+](=O)[O-])cc3)C[C@@H]12`, the TGI in the assay with SN12C renal was 33 µM; in the assay on SF-295 CNS, 20.6 µM; in the assay on NCI/ADR-RES ovarian, 61.1 µM; in the assay on SK-MEL-5 melanoma, 43.5 µM; in the assay with UACC-62 melanoma, greater than 100 µM; in the assay with SK-MEL-28 melanoma it was 74.7 µM. In addition, the TGI was determined as 21.8 µM in the assay on IGROV1 ovarian, 22.6 µM in the assay with HOP-92 NSCLC and 10.2 µM in the assay with NCI-H226 lung.
Regarding `O=C(c1ccccc1O)c1cc(-c2ncc3c(=O)c4ccccc4oc3n2)c(-c2ccccc2O)[nH]c1=O`, the TGI in the assay on SN12C renal is 63.7 µM; in the assay on SF-295 CNS it was 22.7 µM; with NCI/ADR-RES ovarian, greater than 87.6 µM; in the assay with SK-MEL-5 melanoma, 25.8 µM; in the assay with UACC-62 melanoma, 51.4 µM; in the assay with SK-MEL-28 melanoma, 65.3 µM. The TGI in the assay on IGROV1 ovarian was greater than 70.1 µM; with HOP-92 NSCLC, 52 µM; in the assay on NCI-H226 lung, 32.7 µM.
For the compound `OC(C1CCCCCCCCCC1)C(O)C1CCCCCCCCCC1` (stereo not given), the TGI in the assay with SN12C renal, with SF-295 CNS, in the assay on MDA-MB-231 breast, with NCI/ADR-RES ovarian, in the assay with SK-MEL-5 melanoma and with UACC-62 melanoma was greater than 100 µM in each case. The TGI in the assay with SK-MEL-28 melanoma, in the assay on IGROV1 ovarian and in the assay with NCI-H226 lung was greater than 100 µM throughout.
